Experimental data from patent US20020198373A1, “PARTICULATE DRUG CARRIERS” (priority 1997, published 2002).

System: human erythrocytes
Assay: Haemocompatibility study (haemolysis)
Format: cell-based
Conditions: erythrocyte, 5 h, relative to triton X-100 100% and PBS 0%
Procedure: Freshly drawn human blood was centrifuged (3,000 g) to separate the red blood cells. These were washed in PBS (pH=7.4) and weighed. 3 g of the erythrocyte pellet was dispersed in 100 mL PBS (pH=7.4) and incubated for 5 h with various concentrations of GCP41, cholesterol vesicles prepared as described above or DOTAP vesicles (Sigma Chemical Co., UK). Haemolysis was assessed by centrifugation (3,000 g) to isolate the released haemoglobin, addition of 2×volume of isopropanol to the supernatant and the measurement of the absorbance (570 nm).

CCCCCCCC/C=C\CCCCCCCC(=O)OCC(C[N+](C)(C)C)OC(=O)CCCCCCC/C=C\CCCCCCCC.COS(=O)(=O)[O-] (centres unmarked) [DOTAP, N-[1-(2,3-dioleoyloxy)propyl]-N,N,N-trimethylammonium methylsulphate]
% Haemolysis (n = 3) (DOTAP ratio 30): 101.4 ± 20.4% | % Haemolysis (n = 3) (DOTAP ratio 300): 71.0 ± 10.6%
